Data published in patent publication US7709636B2, “Pyrazole sulfonylurea compound and herbicide” (Nissan Chemical Industries, Ltd., priority 2004, dated 2010).

Experiments:
Echinochloa crus-galli [1] = assay: Herbicidal effect test in submerged condition by treatment before weed-generation (1); format: in vivo; conditions: 0.64 g/a, water surface treated on day of sowing, 3 weeks after treatment
Source text: (§1) Herbicidal Effect Test in Submerged Condition by Treatment Before Weed-Generation (1)
(§2) After alluvial soil was placed in a styrol cup of 1/30000 are, water was poured therein and mixed, and adjusted to a submerged condition of water depth 4 cm. After seeds of Echinochloa crus-galli, Scirpus juncoides and Monochoria vaginalis were sown in the cup, rice seedlings at 2.5th leaf stage were transplanted. On the day when the seeds were sown, the wettable powder of the present invention prepared according to Formulation Example 1 was diluted with water so as to give a predetermined formulation amount, and the surface of the water was treated with the diluted wettable powder. The plants were grown by putting the cup in a green house at 25 to 30° C., and investigated on herbicidal effect against each weed 3 weeks after treatment with the herbicide according to the following criteria.
(§3) 5 Herbicidal rate 90% or more (almost complete death)
(§4) 4 Herbicidal rate 70% or more and less than 90%
(§5) 3 Herbicidal rate 40% or more and less than 70%
(§6) 2 Herbicidal rate 20% or more and less than 40%
(§7) 1 Herbicidal rate 5% or more and less than 20%
(§8) 0 Herbicidal rate 5% or less (little effect)

Monochoria vaginalis [2] = assay: as above; format: in vivo; conditions: 0.64 g/a, water surface treated on day of sowing, 3 weeks after treatment
Source text: as §1, §2, §3, §4, §5, §6, §7, §8

Scirpus juncoides [3] = assay: as above; format: in vivo; conditions: 0.64 g/a, water surface treated on day of sowing, 3 weeks after treatment
Source text: as §1, §2, §3, §4, §5, §6, §7, §8

Echinochloa crus-galli [4] = assay: Herbicidal effect test in submerged condition by treatment during weed-growth stage (1); format: in vivo; conditions: 0.64 g/a, treated at 1st to 2nd leaf stage, 3 weeks after treatment
Experimental: (§9) Herbicidal Effect Test in Submerged Condition by Treatment During Weed-Growth Stage (1) After alluvial soil was placed in a styrol cup of 1/30000 are, water was poured therein and mixed, and adjusted to a submerged condition of water depth 4 cm. After seeds of Echinochloa crus-galli, Scirpus juncoides and Monochoria vaginalis were sown in the cup, the plants were grown by putting the cup in a green house at 25 to 30° C. When Echinochloa crus-galli, Scirpus juncoides and Monochoria vaginalis reached 1st to 2nd leaf stage, the wettable powder of the present invention prepared according to Formulation Example 1 was diluted with water so as to give a predetermined formulation amount, and the surface of the water was treated with the diluted wettable powder. The herbicidal effect for each plant was investigated 3 weeks after treatment with the herbicide according to the criteria indicated in Test Example 1.

Monochoria vaginalis [5] = assay: as above; format: in vivo; conditions: 0.64 g/a, treated at 1st to 2nd leaf stage, 3 weeks after treatment
Experimental: as §9

Scirpus juncoides [6] = assay: as above; format: in vivo; conditions: 0.64 g/a, treated at 1st to 2nd leaf stage, 3 weeks after treatment
Experimental: as §9

Abutilon avicennae [7] = assay: Herbicidal effect test by soil treatment; format: in vivo; conditions: 1.6 g/a, 3 weeks after treatment
Source text: (§10) Herbicidal Effect Test by Soil Treatment
(§11) Sterilized diluvial soil was placed in a plastic box having a size of length 21 cm, width 13 cm and depth 7 cm, seeds Echinochloa crus-galli, Digitaria adscendes, Setaria viridis, Avena fatua, Black-grass, Abutilon avicennae, Ambrosia elatior, Amaranthus retroflexus, Chenopodium album, Polygonum blumei, Stellaria media, Zea mays (corn), Glycine max (soybean), Oryza sativa (rice), Triticum aestivum (wheat) and Beta vulgaris (beat) were sown interspatially, covered with about 1.5 cm of soil, and then the wettable powder of the present invention prepared according to Formulation Example 1 was diluted with water so as to give a predetermined formulation amount, and the surface of the soil was uniformly treated with the diluted wettable powder by use of a small-sized spray. The herbicidal effect for each plant was investigated 3 weeks after treatment with the herbicide according to the criteria indicated in Test Example 1.

Amaranthus retroflexus [8] = assay: Herbicidal effect test by soil treatment; format: in vivo; conditions: 1.6 g/a, 3 weeks after treatment
Source text: as §10, §11

Ambrosia elatior [9] = assay: Herbicidal effect test by soil treatment; format: in vivo; conditions: 1.6 g/a, 3 weeks after treatment
Source text: as §10, §11

Avena fatua [10] = assay: Herbicidal effect test by soil treatment; format: in vivo; conditions: 1.6 g/a, 3 weeks after treatment
Source text: as §10, §11

Beta vulgaris (beet) [11] = assay: Herbicidal effect test by soil treatment; format: in vivo; conditions: 1.6 g/a, 3 weeks after treatment
Source text: as §10, §11

Black-grass = assay: Herbicidal effect test by soil treatment; format: in vivo; conditions: 1.6 g/a, 3 weeks after treatment
Source text: as §10, §11

Chenopodium album [12] = assay: Herbicidal effect test by soil treatment; format: in vivo; conditions: 1.6 g/a, 3 weeks after treatment
Source text: as §10, §11

Digitaria adscendes [13] = assay: Herbicidal effect test by soil treatment; format: in vivo; conditions: 1.6 g/a, 3 weeks after treatment
Source text: as §10, §11

Echinochloa crus-galli [14] = assay: Herbicidal effect test by soil treatment; format: in vivo; conditions: 1.6 g/a, 3 weeks after treatment
Source text: as §10, §11

Polygonum blumei [15] = assay: Herbicidal effect test by soil treatment; format: in vivo; conditions: 1.6 g/a, 3 weeks after treatment
Source text: as §10, §11

Setaria viridis [16] = assay: Herbicidal effect test by soil treatment; format: in vivo; conditions: 1.6 g/a, 3 weeks after treatment
Source text: as §10, §11

Stellaria media [17] = assay: Herbicidal effect test by soil treatment; format: in vivo; conditions: 1.6 g/a, 3 weeks after treatment
Source text: as §10, §11

[18] = system: Triticum aestivum (wheat); assay: Herbicidal effect test by soil treatment; format: in vivo; conditions: 1.6 g/a, 3 weeks after treatment
Source text: as §10, §11

corn (Zea mays) [19] = assay: Herbicidal effect test by soil treatment; format: in vivo; conditions: 1.6 g/a, 3 weeks after treatment
Source text: as §10, §11

soybean (Glycine max) [20] = assay: Herbicidal effect test by soil treatment; format: in vivo; conditions: 1.6 g/a, 3 weeks after treatment
Source text: as §10, §11

direct sown rice [21] = assay: Herbicidal effect test by soil treatment; format: in vivo, Oryza sativa; conditions: 1.6 g/a, 3 weeks after treatment
Source text: as §10, §11

Abutilon avicennae [22] = assay: Herbicidal effect test by foliage treatment; format: in vivo; conditions: 1.6 g/a; foliage treatment after growth of 14 days; 3 weeks after treatment
Source text: (§12) Herbicidal Effect Test by Foliage Treatment
(§13) Sterilized diluvial soil was placed in a plastic box having a size of length 21 cm, width 13 cm and depth 7 cm, seeds of Echinochloa crus-galli, Digitaria adscendes, Setaria viridis, Avena fatua, Black-grass, Abutilon avicennae, Ambrosia elatior, Amaranthus retroflexus, Chenopodium album, Polygonum blumei, Stellaria media, Zea mays, Glycine max, Oryza sativa, Triticum aestivum and Beta vulgaris were sown interspatially, covered with about 1.5 cm of soil, and then the plants were grown by putting the box in a green house at 25 to 30° C. After growth of 14 days, the wettable powder of the present invention prepared according to Formulation Example 1 was diluted with water so as to give a predetermined formulation amount, and the foliage part was uniformly treated with the diluted wettable powder by use of a small-sized spray. The herbicidal effect for each plant was investigated 3 weeks after treatment with the herbicide according to the criteria indicated in Test Example 1.

Amaranthus retroflexus [23] = assay: Herbicidal effect test by foliage treatment; format: in vivo; conditions: 1.6 g/a; foliage treatment after growth of 14 days; 3 weeks after treatment
Source text: as §12, §13

Ambrosia elatior [24] = assay: Herbicidal effect test by foliage treatment; format: in vivo; conditions: 1.6 g/a; foliage treatment after growth of 14 days; 3 weeks after treatment
Source text: as §12, §13

Avena fatua [25] = assay: Herbicidal effect test by foliage treatment; format: in vivo; conditions: 1.6 g/a; foliage treatment after growth of 14 days; 3 weeks after treatment
Source text: as §12, §13

Beta vulgaris (beet) [26] = assay: Herbicidal effect test by foliage treatment; format: in vivo; conditions: 1.6 g/a; foliage treatment after growth of 14 days; 3 weeks after treatment
Source text: as §12, §13

Chenopodium album [27] = assay: Herbicidal effect test by foliage treatment; format: in vivo; conditions: 1.6 g/a; foliage treatment after growth of 14 days; 3 weeks after treatment
Source text: as §12, §13

Digitaria adscendes [28] = assay: Herbicidal effect test by foliage treatment; format: in vivo; conditions: 1.6 g/a; foliage treatment after growth of 14 days; 3 weeks after treatment
Source text: as §12, §13

Echinochloa crus-galli [29] = assay: Herbicidal effect test by foliage treatment; format: in vivo; conditions: 1.6 g/a; foliage treatment after growth of 14 days; 3 weeks after treatment
Source text: as §12, §13

Polygonum blumei [30] = assay: Herbicidal effect test by foliage treatment; format: in vivo; conditions: 1.6 g/a; foliage treatment after growth of 14 days; 3 weeks after treatment
Source text: as §12, §13

Setaria viridis [31] = assay: Herbicidal effect test by foliage treatment; format: in vivo; conditions: 1.6 g/a; foliage treatment after growth of 14 days; 3 weeks after treatment
Source text: as §12, §13

Stellaria media [32] = assay: Herbicidal effect test by foliage treatment; format: in vivo; conditions: 1.6 g/a; foliage treatment after growth of 14 days; 3 weeks after treatment
Source text: as §12, §13

[33] = system: Triticum aestivum (wheat); assay: Herbicidal effect test by foliage treatment; format: in vivo; conditions: 1.6 g/a; foliage treatment after growth of 14 days; 3 weeks after treatment
Source text: as §12, §13

corn (Zea mays) [34] = assay: Herbicidal effect test by foliage treatment; format: in vivo; conditions: 1.6 g/a; foliage treatment after growth of 14 days; 3 weeks after treatment
Source text: as §12, §13

soybean (Glycine max) [35] = assay: Herbicidal effect test by foliage treatment; format: in vivo; conditions: 1.6 g/a; foliage treatment after growth of 14 days; 3 weeks after treatment
Source text: as §12, §13

direct sown rice [36] = assay: Herbicidal effect test by foliage treatment; format: in vivo, Oryza sativa; conditions: 1.6 g/a; foliage treatment after growth of 14 days; 3 weeks after treatment
Source text: as §12, §13

COc1cc(OC)nc(NC(=O)NS(=O)(=O)c2c(C3=NOCC(C)(C)O3)c(Cl)nn2C)n1 [Compound 3, N-((4,6-dimethoxypyrimidin-2-yl)aminocarbonyl)-3-chloro-4-(5,5-dimethyl-5H,6H-1,4,2-dioxadin-3-yl)-1-methylpyrazole-5-sulfonamide]
herbicidal effect, A: Echinochloa crus-galli (Echinochloa crus-galli [1]): 5 (Herbicidal rate 90% or more (almost complete death)) | herbicidal effect, C: Monochoria vaginalis (Monochoria vaginalis [2]): 5 (Herbicidal rate 90% or more (almost complete death)) | herbicidal effect, B: Scirpus juncoides (Scirpus juncoides [3]): 5 (Herbicidal rate 90% or more (almost complete death)) | herbicidal effect, A: Echinochloa crus-galli (Echinochloa crus-galli [4]): 5 (Herbicidal rate 90% or more (almost complete death)) | herbicidal effect, C: Monochoria vaginalis (Monochoria vaginalis [5]): 5 (Herbicidal rate 90% or more (almost complete death)) | herbicidal effect, B: Scirpus juncoides (Scirpus juncoides [6]): 5 (Herbicidal rate 90% or more (almost complete death)) | herbicidal effect, H: Abutilon avicennae (Abutilon avicennae [7]): 5 (Herbicidal rate 90% or more (almost complete death)) | herbicidal effect, J: Amaranthus retroflexus (Amaranthus retroflexus [8]): 4 (Herbicidal rate 70% or more and less than 90%) | herbicidal effect, I: Ambrosia elatior (Ambrosia elatior [9]): 5 (Herbicidal rate 90% or more (almost complete death)) | herbicidal effect, F: Avena fatua (Avena fatua [10]): 0 (Herbicidal rate 5% or less (little effect)) | herbicidal effect, f: Beta vulgaris (beet) (Beta vulgaris (beet) [11]): 4 (Herbicidal rate 70% or more and less than 90%) | herbicidal effect, G: Black-grass (Black-grass): 3 (Herbicidal rate 40% or more and less than 70%) | herbicidal effect, K: Chenopodium album (Chenopodium album [12]): 3 (Herbicidal rate 40% or more and less than 70%) | herbicidal effect, D: Digitaria adscendes (Digitaria adscendes [13]): 2 (Herbicidal rate 20% or more and less than 40%) | herbicidal effect, A: Echinochloa crus-galli (Echinochloa crus-galli [14]): 2 (Herbicidal rate 20% or more and less than 40%) | herbicidal effect, L: Polygonum blumei (Polygonum blumei [15]): 5 (Herbicidal rate 90% or more (almost complete death)) | herbicidal effect, E: Setaria viridis (Setaria viridis [16]): 0 (Herbicidal rate 5% or less (little effect)) | herbicidal effect, M: Stellaria media (Stellaria media [17]): 5 (Herbicidal rate 90% or more (almost complete death)) | herbicidal effect, e: Triticum aestivum (wheat) [18]: 0 (Herbicidal rate 5% or less (little effect)) | herbicidal effect, b: corn (Zea mays) (corn (Zea mays) [19]): 3 (Herbicidal rate 40% or more and less than 70%) | herbicidal effect, c: soybean (Glycine max) (soybean (Glycine max) [20]): 1 (Herbicidal rate 5% or more and less than 20%) | herbicidal effect, d: direct sown rice (direct sown rice [21]): 0 (Herbicidal rate 5% or less (little effect)) | herbicidal effect, H: Abutilon avicennae (Abutilon avicennae [22]): 5 (Herbicidal rate 90% or more (almost complete death)) | herbicidal effect, J: Amaranthus retroflexus (Amaranthus retroflexus [23]): 0 (Herbicidal rate 5% or less (little effect)) | herbicidal effect, I: Ambrosia elatior (Ambrosia elatior [24]): 5 (Herbicidal rate 90% or more (almost complete death)) | herbicidal effect, F: Avena fatua (Avena fatua [25]): 0 (Herbicidal rate 5% or less (little effect)) | herbicidal effect, f: Beta vulgaris (beet) (Beta vulgaris (beet) [26]): 3 (Herbicidal rate 40% or more and less than 70%) | herbicidal effect, K: Chenopodium album (Chenopodium album [27]): 2 (Herbicidal rate 20% or more and less than 40%) | herbicidal effect, D: Digitaria adscendes (Digitaria adscendes [28]): 3 (Herbicidal rate 40% or more and less than 70%) | herbicidal effect, A: Echinochloa crus-galli (Echinochloa crus-galli [29]): 4 (Herbicidal rate 70% or more and less than 90%) | herbicidal effect, L: Polygonum blumei (Polygonum blumei [30]): 3 (Herbicidal rate 40% or more and less than 70%) | herbicidal effect, E: Setaria viridis (Setaria viridis [31]): 2 (Herbicidal rate 20% or more and less than 40%) | herbicidal effect, M: Stellaria media (Stellaria media [32]): 5 (Herbicidal rate 90% or more (almost complete death)) | herbicidal effect, e: Triticum aestivum (wheat) [33]: 0 (Herbicidal rate 5% or less (little effect)) | herbicidal effect, b: corn (Zea mays) (corn (Zea mays) [34]): 4 (Herbicidal rate 70% or more and less than 90%) | herbicidal effect, c: soybean (Glycine max) (soybean (Glycine max) [35]): 5 (Herbicidal rate 90% or more (almost complete death)) | herbicidal effect, d: direct sown rice (direct sown rice [36]): 0 (Herbicidal rate 5% or less (little effect))
